pIC50: −log10 of the molar value.
Molecular target: P. falciparum apicoplast DNA polymerase (Pf-apPOL) (Plasmodium falciparum, UniProt Q8ILY1)
Assay: Fluorescence-based high-throughput DNA polymerase assay (molecular beacon), primary screen and dose-response;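 for % inhibition ApPOL 90': test concentration in µM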;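 for % inhibition apPOL 180': test concentration in µM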
Format: biochemical
How it was run: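 Single-point screening used 10 µM compound with 20 nM polymerase, 20 nM hairpin substrate and 6 µM dNTPs for 90 min at 25 °C. Confirmatory titrations (2.5–80 µM) followed fluorescence at three times, and IC50 was derived from a fit including a cooperativity term n.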

[1] = supplemental file 2, sheet IC50 nontoxic compounds; Pf-apPOL

P. falciparum apicoplast DNA polymerase (Pf-apPOL), sequence (Q8ILY1 entry or part of it): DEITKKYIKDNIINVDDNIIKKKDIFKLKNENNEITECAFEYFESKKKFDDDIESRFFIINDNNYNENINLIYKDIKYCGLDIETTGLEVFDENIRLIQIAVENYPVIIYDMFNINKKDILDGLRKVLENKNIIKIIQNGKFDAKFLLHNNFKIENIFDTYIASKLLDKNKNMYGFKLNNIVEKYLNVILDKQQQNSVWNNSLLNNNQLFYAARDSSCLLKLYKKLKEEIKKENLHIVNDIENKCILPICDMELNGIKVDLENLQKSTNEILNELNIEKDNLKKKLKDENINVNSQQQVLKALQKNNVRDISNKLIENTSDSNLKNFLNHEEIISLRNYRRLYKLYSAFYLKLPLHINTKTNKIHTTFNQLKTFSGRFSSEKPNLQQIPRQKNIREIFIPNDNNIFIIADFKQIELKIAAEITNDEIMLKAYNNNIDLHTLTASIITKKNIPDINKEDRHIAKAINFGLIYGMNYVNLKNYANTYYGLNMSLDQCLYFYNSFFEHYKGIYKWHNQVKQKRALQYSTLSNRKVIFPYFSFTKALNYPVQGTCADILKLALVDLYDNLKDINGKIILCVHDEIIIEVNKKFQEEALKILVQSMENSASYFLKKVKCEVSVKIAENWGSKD

CCSc1nnc(NC(=O)Cc2csc(NC(=O)c3cnccn3)n2)s1 [Molecule 79, CCSc1nnc(s1)NC(=O)Cc1csc(n1)NC(=O)c1cnccn1]
DNA Pol ('DNA Pol'; screening value, unit not given; 90 min, 10 µM): 44
% inhibition Apo pol 10' (DRC-1; 10'; concentration 2.5): -4.905%
% inhibition Apo pol 10' (DRC-1; 10'; concentration 5): -2.236%
% inhibition Apo pol 10' (DRC-1; 10'; concentration 10): 11.7558%
% inhibition Apo pol 10' (DRC-1; 10'; concentration 20): 21.8429%
% inhibition Apo pol 10' (DRC-1; 10'; concentration 40): 42.6087%
% inhibition Apo pol 10' (DRC-1; 10'; concentration 80): 77.5256%
% inhibition Apol 90' (DRC-1; 90'; concentration 2.5): -9.3965%
% inhibition Apol 90' (DRC-1; 90'; concentration 5): -9.701%
% inhibition Apol 90' (DRC-1; 90'; concentration 10): -1.729%
% inhibition Apol 90' (DRC-1; 90'; concentration 20): 6.401%
% inhibition Apol 90' (DRC-1; 90'; concentration 40): 23.3518%
% inhibition Apol 90' (DRC-1; 90'; concentration 80): 61.199%
% inhibition apPOL 180' (DRC-1; 180'; concentration 2.5): -15.2579%
% inhibition apPOL 180' (DRC-1; 180'; concentration 5): -16.9778%
% inhibition apPOL 180' (DRC-1; 180'; concentration 10): -10.4775%
% inhibition apPOL 180' (DRC-1; 180'; concentration 20): -5.476%
% inhibition apPOL 180' (DRC-1; 180'; concentration 40): 8.736%
% inhibition apPOL 180' (DRC-1; 180'; concentration 80): 42.542%
% inhibition Apo pol 5' (DRC-2, 5', concentration 2.5): 1.36%
% inhibition Apo pol 5' (DRC-2, 5', concentration 5): 13%
% inhibition Apo pol 5' (DRC-2, 5', concentration 10): 30%
% inhibition Apo pol 5' (DRC-2, 5', concentration 20): 43%
% inhibition Apo pol 5' (DRC-2, 5', concentration 40): 55%
% inhibition Apo pol 5' (DRC-2, 5', concentration 80): 62%
% inhibition Apol 40' (DRC-2, 40', concentration 2.5): -2.42%
% inhibition Apol 40' (DRC-2, 40', concentration 5): 7%
% inhibition Apol 40' (DRC-2, 40', concentration 10): 25%
% inhibition Apol 40' (DRC-2, 40', concentration 20): 40%
% inhibition Apol 40' (DRC-2, 40', concentration 40): 62%
% inhibition Apol 40' (DRC-2, 40', concentration 80): 76%
% inhibition ApPOL 90' (DRC-2, 90', concentration 2.5): -4.46%
% inhibition ApPOL 90' (DRC-2, 90', concentration 5): 5%
% inhibition ApPOL 90' (DRC-2, 90', concentration 10): 22%
% inhibition ApPOL 90' (DRC-2, 90', concentration 20): 35%
% inhibition ApPOL 90' (DRC-2, 90', concentration 40): 62%
% inhibition ApPOL 90' (DRC-2, 90', concentration 80): 79%
% inhibition apPOL 180' (DRC-2, 180', concentration 2.5): -6%
% inhibition apPOL 180' (DRC-2, 180', concentration 5): 1.68%
% inhibition apPOL 180' (DRC-2, 180', concentration 10): 14%
% inhibition apPOL 180' (DRC-2, 180', concentration 20): 26%
% inhibition apPOL 180' (DRC-2, 180', concentration 40): 59%
% inhibition apPOL 180' (DRC-2, 180', concentration 80): 81%
% inhibition Apol 40' (conc 40 (unit not given); 40'; DRC-2): 62%
% inhibition ApPOL 90' (conc 40 (unit not given); 90'; DRC-2): 62%
% inhibition Apo pol 5' (conc 80 (unit not given); 5'; DRC-2): 62%
DNA Pol (primary screen hit value, DNA Pol (186 hits); 90 min, 10 µM): 44

CCSc1nnc(NC(=O)Cc2csc(NC(=O)c3cnccn3)n2)s1 [Molecule 79]
pIC50 [1]: 4.33

Oc1ccc(N=Nc2ccccc2)c(O)c1 [Molecule 80, Oc1ccc(c(c1)O)N=Nc1ccccc1]
DNA Pol (186 hits, value of the hit list (primary screen); unit not given; 90 min, 10 µM): 72
% inhibition Apo pol 10' (DRC-1; 10'; concentration 2.5): 10.9556%
% inhibition Apo pol 10' (DRC-1; 10'; concentration 5): 10.5427%
% inhibition Apo pol 10' (DRC-1; 10'; concentration 10): 21.5612%
% inhibition Apo pol 10' (DRC-1; 10'; concentration 20): 33.6555%
% inhibition Apo pol 10' (DRC-1; 10'; concentration 40): 51.3856%
% inhibition Apo pol 10' (DRC-1; 10'; concentration 80): 71.5271%
% inhibition Apol 90' (DRC-1; 90'; concentration 2.5): -0.1987%
% inhibition Apol 90' (DRC-1; 90'; concentration 5): 0.4517%
% inhibition Apol 90' (DRC-1; 90'; concentration 10): 6.956%
% inhibition Apol 90' (DRC-1; 90'; concentration 20): 15.0719%
% inhibition Apol 90' (DRC-1; 90'; concentration 40): 30.4244%
% inhibition Apol 90' (DRC-1; 90'; concentration 80): 54.1765%
% inhibition apPOL 180' (DRC-1; 180'; concentration 2.5): -4.521%
% inhibition apPOL 180' (DRC-1; 180'; concentration 5): -7.381%
% inhibition apPOL 180' (DRC-1; 180'; concentration 10): -2.239%
% inhibition apPOL 180' (DRC-1; 180'; concentration 20): 3.639%
% inhibition apPOL 180' (DRC-1; 180'; concentration 40): 16.6852%
% inhibition apPOL 180' (DRC-1; 180'; concentration 80): 39.1474%
% inhibition Apo pol 5' (DRC-2, 5', concentration 2.5): 1.77%
% inhibition Apo pol 5' (DRC-2, 5', concentration 5): 5.48%
% inhibition Apo pol 5' (DRC-2, 5', concentration 10): 24%
% inhibition Apo pol 5' (DRC-2, 5', concentration 20): 31%
% inhibition Apo pol 5' (DRC-2, 5', concentration 40): 44%
% inhibition Apo pol 5' (DRC-2, 5', concentration 80): 51%
% inhibition Apol 40' (DRC-2, 40', concentration 2.5): 1.06%
% inhibition Apol 40' (DRC-2, 40', concentration 5): 2.17%
% inhibition Apol 40' (DRC-2, 40', concentration 10): 23%
% inhibition Apol 40' (DRC-2, 40', concentration 20): 29%
% inhibition Apol 40' (DRC-2, 40', concentration 40): 43%
% inhibition Apol 40' (DRC-2, 40', concentration 80): 54%
% inhibition ApPOL 90' (DRC-2, 90', concentration 2.5): -1%
% inhibition ApPOL 90' (DRC-2, 90', concentration 5): -0.664%
% inhibition ApPOL 90' (DRC-2, 90', concentration 10): 21%
% inhibition ApPOL 90' (DRC-2, 90', concentration 20): 24%
% inhibition ApPOL 90' (DRC-2, 90', concentration 40): 38%
% inhibition ApPOL 90' (DRC-2, 90', concentration 80): 52%
% inhibition apPOL 180' (DRC-2, 180', concentration 2.5): -4%
% inhibition apPOL 180' (DRC-2, 180', concentration 5): -4.42%
% inhibition apPOL 180' (DRC-2, 180', concentration 10): 16%
% inhibition apPOL 180' (DRC-2, 180', concentration 20): 15%
% inhibition apPOL 180' (DRC-2, 180', concentration 40): 25%
% inhibition apPOL 180' (DRC-2, 180', concentration 80): 41%
% inhibition Apo pol 5' (DRC-2; 5'; concentration 10): 24%
% inhibition ApPOL 90' (DRC-2; 90'; concentration 20): 24%
DNA Pol (primary screen value, 'DNA Pol' only; 90 min, 10 µM): 72

Oc1ccc(N=Nc2ccccc2)c(O)c1 [Molecule 80]
pIC50 [1]: 4.43

CC(C)(C)OC(=O)COc1ccc2cc(-c3ccccc3)c(=O)oc2c1 [Molecule 81]
pIC50 [1]: 4.46

From paper PMC9090415, “Discovery of small molecule inhibitors of Plasmodium falciparum apicoplast DNA polymerase” (Journal of Enzyme Inhibition and Medicinal Chemistry, 2022)
